Laboratory results: patent US6472348B1, “Pyridone derivatives and herbicides” (Kumiai Chemical Industry Co., Ltd., priority 1996, dated 2002)

melting point [°C] | Compound
169 to 171 | CSCc1cc2c(-c3ccc(C(F)(F)F)n(C)c3=O)c(F)cc(Cl)c2o1 [Compound No. 4-44, 3-(7-chloro-5-fluoro-2-methylthiomethylbenzofuran-4-yl)-1-methyl-6-trifluoromethyl-2-(1H)-pyridone]
125 to 127 | CCC(c1cc2c(-c3ccc(C(F)(F)F)n(C)c3=O)c(F)cc(Cl)c2o1)[S+](C)[O-] (stereo not shown) [Compound No. 4-57, 3-[7-chloro-5-fluoro-2-(1-methylsulfinylpropyl)benzofuran-4-yl]-1-methyl-6-trifluoromethyl-2-(1H)-pyridone]
146 to 148 | CCC(c1cc2c(-c3ccc(C(F)(F)F)n(C)c3=O)c(F)cc(Cl)c2o1)S(C)(=O)=O (stereo not shown) [Compound No. 4-58, 3-[7-chloro-5-fluoro-2-(1-methylsulfonylpropyl)benzofuran-4-yl]-1-methyl-6-trifluoromethyl-2-(1H)-pyridone]

The remaining lines, values behind:

Compound | melting point [°C]
Cc1cc(-c2cc(O)c(Cl)cc2F)c(=O)n(C)c1C(F)(F)F [Compound No. 1-79, 3-(4-chloro-2-fluoro-5-hydroxyphenyl)-1,5-dimethyl-6-trifluoromethyl-2(1H)-pyridone] | 207 to 208
CC(=O)Sc1cc(-c2ccc(C(F)(F)F)n(C)c2=O)c(F)cc1Cl [Compound No. 1-85, 3-(5-acetylthio-4-chloro-2-fluorophenyl)-1-methyl-6-trifluoromethyl-2(1H)-pyridone] | 91 to 92
Cn1c(C(F)(F)F)ccc(-c2cc([N+](=O)[O-])c(F)cc2F)c1=O [Compound No. 1-100, 3-(2,4-difluoro-5-nitrophenyl)-1-methyl-6-trifluoromethyl-2(1H)-pyridone] | 115 to 118
Cn1c(C(F)(F)F)ccc(-c2cc3[nH]c(=O)oc3cc2Cl)c1=O [Compound No. 3-20, 3-(6-chlorobenzoxazolin-2-on-5-yl)-1-methyl-6-trifluoromethyl-2(1H)-pyridone] | 263 to 265
